Assay results published in patent US20100168102A9, “Amide Derivatives as Kinase Inhibitors” (Devgen NV, priority 2005, published 2010).
Counter-ions that a name gives are not always drawn. Like-named read-outs stand apart in the source and are kept apart here.

Key:
PKC epsilon = target: T1, PKC epsilon (Homo sapiens, UniProt Q02156); assay: Biochemical assay for PKC epsilon (fluorescence polarization, Protein Kinase C Assay Kit, Red); settings: read-out: IC50 μM PKCε
T1 construct: purchased Invitrogen P2282
T1 sequence (Q02156 1-737): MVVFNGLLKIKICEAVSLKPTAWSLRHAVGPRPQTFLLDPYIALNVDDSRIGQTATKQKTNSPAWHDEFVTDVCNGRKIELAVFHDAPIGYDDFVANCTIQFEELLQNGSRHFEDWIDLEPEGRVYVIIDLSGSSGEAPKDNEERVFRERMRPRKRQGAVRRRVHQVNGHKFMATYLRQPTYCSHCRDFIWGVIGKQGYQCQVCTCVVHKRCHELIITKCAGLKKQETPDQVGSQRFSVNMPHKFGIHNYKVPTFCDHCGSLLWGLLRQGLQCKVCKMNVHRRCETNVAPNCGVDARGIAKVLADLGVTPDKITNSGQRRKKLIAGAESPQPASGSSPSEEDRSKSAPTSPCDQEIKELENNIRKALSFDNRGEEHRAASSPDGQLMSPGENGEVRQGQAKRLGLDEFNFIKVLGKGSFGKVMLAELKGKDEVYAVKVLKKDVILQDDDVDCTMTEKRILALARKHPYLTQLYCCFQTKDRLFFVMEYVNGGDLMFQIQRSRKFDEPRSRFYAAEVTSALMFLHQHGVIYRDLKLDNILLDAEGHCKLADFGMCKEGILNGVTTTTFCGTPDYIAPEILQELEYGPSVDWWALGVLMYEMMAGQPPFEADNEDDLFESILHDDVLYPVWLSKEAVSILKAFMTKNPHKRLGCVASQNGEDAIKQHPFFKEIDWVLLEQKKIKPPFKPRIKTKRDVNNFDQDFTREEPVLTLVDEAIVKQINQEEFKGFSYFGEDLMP
In short: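 Read-out was fluorescence-polarization competition between phosphorylated substrate and a rhodamine PKC tracer for an anti-phosphoserine antibody, added with EDTA stop after an 80 min room-temperature kinase reaction with ATP and protein substrate (Mg2+/Ca2+ buffer). Enzyme (10 ng/ml final) was preincubated with compound for 30 min.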

human ROCKα/ROCKII mix = target: T2, human ROCKα/ROCKII mix (Homo sapiens, UniProt O75116); assay: Biochemical assay for ROCK (fluorescence polarization, ROCK IMAP Kit)
T2 construct: purchased Upstate Biotechnology 14-451
T2 sequence (O75116 11-552 limits assumed): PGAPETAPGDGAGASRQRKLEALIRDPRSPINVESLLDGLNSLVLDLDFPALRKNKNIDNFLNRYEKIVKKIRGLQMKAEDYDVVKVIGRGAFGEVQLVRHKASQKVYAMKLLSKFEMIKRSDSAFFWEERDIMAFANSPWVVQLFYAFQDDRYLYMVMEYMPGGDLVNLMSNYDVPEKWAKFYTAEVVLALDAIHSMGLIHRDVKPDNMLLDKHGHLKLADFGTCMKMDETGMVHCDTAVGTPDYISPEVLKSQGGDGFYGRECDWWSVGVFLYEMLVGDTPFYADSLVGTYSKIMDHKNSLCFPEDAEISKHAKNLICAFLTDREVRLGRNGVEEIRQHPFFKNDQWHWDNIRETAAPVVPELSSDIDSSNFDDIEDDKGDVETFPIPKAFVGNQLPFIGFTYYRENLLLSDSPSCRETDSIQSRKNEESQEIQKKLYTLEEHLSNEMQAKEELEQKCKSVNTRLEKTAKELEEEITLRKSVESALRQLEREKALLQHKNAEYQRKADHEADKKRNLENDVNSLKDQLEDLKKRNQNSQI

[1] = compounds of Formula XIV, Table 3
[2] = Table 2, compounds of Formula XIII

| Compound | IC50 (PKC epsilon) [µM] | IC50 (human ROCKα/ROCKII mix) [µM] | also measured |
| --- | --- | --- | --- |
| NC(c1ccc(C(=O)Nc2ccncc2)cc1)C1CCCN1C(=O)C1(c2cccc(F)c2)CCCC1 (stereo not drawn) [Compound 570, 4-(Amino-{1-[1-(3-fluoro-phenyl)-cyclopentanecarbonyl]-pyrrolidin-2-yl}-methyl)-N-pyridin-4-yl-benzamide] | 0.5 to 5 | 0.5 to 5 |  |
| CN(CC(N)c1ccc(C(=O)Nc2ccncc2)cc1)C(=O)Cc1ccc(F)cc1Cl (stereo not drawn) [Compound 498, 4-(1-Amino-2-{[2-(2-chloro-4-fluoro-phenyl)-acetyl]-methyl-amino}-ethyl)-N-pyridin-4-yl-benzamide] | 5 to 50 | 0.5 to 5 |  |
| CC(C)C(C(=O)N1CCCC1C(N)c1ccc(C(=O)Nc2ccncc2)cc1)c1ccc(Cl)cc1 (stereo not drawn) [Compound 562, 4-(Amino-{1-[2-(4-chloro-phenyl)-3-methyl-butyryl]-pyrrolidin-2-yl}-methyl)-N-pyridin-4-yl-benzamide] | 0.5 to 5 | 0.5 to 5 |  |
| NC(CC(=O)NCCc1ccc(Cl)cc1Cl)c1ccc(C(=O)Nc2ccncc2)cc1 (stereo not drawn) [Compound 303, 4-{1-Amino-2-[2-(2,4-dichloro-phenyl)-ethylcarbamoyl]-ethyl}-N-pyridin-4-yl-benzamide] |  |  | IC50 (PKC epsilon; [1]): 0.5 to 5 µM; IC50 (human ROCKα/ROCKII mix; [1]): 0.05 to 0.5 µM |
| COc1ccc(CC(=O)NCC(N)c2ccc(C(=O)Nc3ccncc3)cc2)cc1F (stereo not drawn) [Compound 327, 4-{1-Amino-2-[2-(3-fluoro-4-methoxy-phenyl)-acetylamino]-ethyl}-N-pyridin-4-yl-benzamide] |  |  | IC50 (PKC epsilon; [2]): 0.5 to 5 µM; IC50 (human ROCKα/ROCKII mix; [2]): 0.05 to 0.5 µM |
| NC(CC(=O)NCc1ccc(Cl)cc1Cl)c1ccc(C(=O)Nc2ccncc2)cc1 (stereo not drawn) [Compound 252, 4-[1-Amino-2-(2,4-dichloro-benzylcarbamoyl)-ethyl]-N-pyridin-4-yl-benzamide] |  |  | IC50 (PKC epsilon; [1]): 0.5 to 5 µM; IC50 (human ROCKα/ROCKII mix; [1]): 0.05 to 0.5 µM |
| NC(c1ccc(C(=O)Nc2ccncc2)cc1)C1CCCN1C(=O)C1(c2ccc(F)c(F)c2)CCCC1 (stereo not drawn) [Compound 589, 4-(Amino-{1-[1-(3,4-difluoro-phenyl)-cyclopentanecarbonyl]-pyrrolidin-2-yl}-methyl)-N-pyridin-4-yl-benzamide] | 0.5 to 5 | 0.5 to 5 |  |
| 4-{Amino-[1-(2-1H-indol-3-yl-acetyl)-pyrrolidin-2-yl]-methyl}-N-pyridin-4-yl-benzamide [Compound 545] | 0.5 to 5 | 0.05 to 0.5 |  |
| NC(CNC(=O)C1(c2ccc(F)cc2F)CC1)c1ccc(C(=O)Nc2ccncc2)cc1 (stereo not drawn) [Compound 385, 4-(1-Amino-2-{[1-(2,4-difluoro-phenyl)-cyclopropanecarbonyl]-amino}-ethyl)-N-pyridin-4-yl-benzamide] |  |  | IC50 (PKC epsilon; [2]): < 0.05 µM; IC50 (human ROCKα/ROCKII mix; [2]): 0.05 to 0.5 µM |
| COc1ccc(OC)c(CNC(=O)CC(N)c2ccc(C(=O)Nc3ccncc3)cc2)c1 (stereo not drawn) [Compound 242, 4-[1-Amino-2-(2,5-dimethoxy-benzylcarbamoyl)-ethyl]-N-pyridin-4-yl-benzamide] |  |  | IC50 (PKC epsilon; [1]): 0.5 to 5 µM; IC50 (human ROCKα/ROCKII mix; [1]): 0.05 to 0.5 µM |
| NC(c1ccc(C(=O)Nc2ccncc2)cc1)C1CCCN1C(=O)Cc1ccc(Cl)c(Cl)c1 (stereo not drawn) [Compound 592, 4-(Amino-{1-[2-(3,4-dichloro-phenyl)-acetyl]-pyrrolidin-2-yl}-methyl)-N-pyridin-4-yl-benzamide] | 0.5 to 5 | 0.5 to 5 |  |
| NC(CC(=O)NCCc1ccc(Oc2ccccc2)cc1)c1ccc(C(=O)Nc2ccncc2)cc1 (stereo not drawn) [Compound 292, 4-{1-Amino-2-[2-(4-phenoxy-phenyl)-ethylcarbamoyl]-ethyl}-N-pyridin-4-yl-benzamide] |  |  | IC50 (PKC epsilon; [1]): 0.5 to 5 µM; IC50 (human ROCKα/ROCKII mix; [1]): 0.05 to 0.5 µM |
| NC(c1ccc(C(=O)Nc2ccncc2)cc1)C1CCCN1C(=O)C1(c2ccc(Cl)c(Cl)c2)CCC1 (stereo not drawn) [Compound 595, 4-(Amino-{1-[1-(3,4-dichloro-phenyl)-cyclobutanecarbonyl]-pyrrolidin-2-yl}-methyl)-N-pyridin-4-yl-benzamide] | 0.5 to 5 | 0.5 to 5 |  |
| NC(CNC(=O)c1cccc(F)c1)c1ccc(C(=O)Nc2ccncc2)cc1 (stereo not drawn) [Compound 92, 4-[1-amino-2-(3-fluoro-benzoylamino)-ethyl]-N-pyridin-4-yl-benzamide] |  |  | IC50 (PKC epsilon; [2]): 0.5 to 5 µM; IC50 (human ROCKα/ROCKII mix; [2]): 0.5 to 5 µM |
| NC(c1ccc(C(=O)Nc2ccncc2)cc1)C1CCCN1C(=O)Cc1ccc(C(F)(F)F)cc1 (stereo not drawn) [Compound 559, 4-(Amino-{1-[2-(4-trifluoromethyl-phenyl)-acetyl]-pyrrolidin-2-yl}-methyl)-N-pyridin-4-yl-benzamide] | 5 to 50 | 0.5 to 5 |  |
| NC(CNC(=O)C1(c2ccsc2)CC1)c1ccc(C(=O)Nc2ccncc2)cc1 (stereo not drawn) [Compound 347, 4-{1-Amino-2-[(1-thiophen-3-yl-cyclopropanecarbonyl)-amino]-ethyl}-N-pyridin-4-yl-benzamide] |  |  | IC50 (PKC epsilon; [2]): 0.05 to 0.5 µM; IC50 (human ROCKα/ROCKII mix; [2]): 0.05 to 0.5 µM |
| COCC(=O)NCC(N)c1ccc(C(=O)Nc2ccncc2)cc1 (stereo not drawn) [Compound 57, 4-[1-Amino-2-(2-methoxy-acetylamino)-ethyl]-N-pyridin-4-yl-benzamide] |  |  | IC50 (PKC epsilon; [2]): 5 to 50 µM; IC50 (human ROCKα/ROCKII mix; [2]): 0.5 to 5 µM |
| N#Cc1ccc(C(=O)NCC(N)c2ccc(C(=O)Nc3ccncc3)cc2)cc1 (stereo not drawn) [Compound 95, 4-[1-amino-2-(4-cyano-benzoylamino)-ethyl]-N-pyridin-4-yl-benzamide] |  |  | IC50 (PKC epsilon; [2]): 5 to 50 µM; IC50 (human ROCKα/ROCKII mix; [2]): 0.5 to 5 µM |
| COc1ccc(NC(=O)CC(N)c2ccc(C(=O)Nc3ccncc3)cc2)cc1 (stereo not drawn) [Compound 319, 4-[1-Amino-2-(4-methoxy-phenyl-carbamoyl)-ethyl]-N-pyridin-4-yl-benzamide] |  |  | IC50 (PKC epsilon; [1]): 0.5 to 5 µM; IC50 (human ROCKα/ROCKII mix; [1]): 0.05 to 0.5 µM |
| NC(c1ccc(C(=O)Nc2ccncc2)cc1)C1CCCN1C(=O)Cc1ccc(Br)cc1 (stereo not drawn) [Compound 558, 4-(Amino-{1-[2-(4-bromo-phenyl)-acetyl]-pyrrolidin-2-yl}-methyl)-N-pyridin-4-yl-benzamide] | 0.5 to 5 | 0.05 to 0.5 |  |
| NC(CC(=O)Nc1ccc2cc[nH]c2c1)c1ccc(C(=O)Nc2ccncc2)cc1 (stereo not drawn) [Compound 322, 4-[1-Amino-2-(1H-indol-6-ylcarbamoyl)-ethyl]-N-pyridin-4-yl-benzamide] |  |  | IC50 (PKC epsilon; [1]): 0.05 to 0.5 µM; IC50 (human ROCKα/ROCKII mix; [1]): 0.05 to 0.5 µM |
| 4-{1-Amino-2-[methyl-(1- thiophen-3-yl- cyclopropanecarbonyl)- amino]-ethyl}- N-pyridin-4-yl-benzamide [Compound 450] | 5 to 50 | 0.5 to 5 |  |
| NC(c1ccc(C(=O)Nc2ccncc2)cc1)C1CCCN1C(=O)C1CCSc2ccc(F)cc21 (stereo not drawn) [Compound 619, 4-{Amino[1-(6-fluoro-thiochroman-4-carbonyl)-pyrrolidin-2-yl]-methyl}-N-pyridin-4-yl-benzamide] | 0.5 to 5 | 0.5 to 5 |  |
| COc1cccc(OC)c1CNC(=O)CC(N)c1ccc(C(=O)Nc2ccncc2)cc1 (stereo not drawn) [Compound 243, 4-[1-Amino-2-(2,6-dimethoxy-benzylcarbamoyl)-ethy]-N-pyridin-4-yl-benzamide] |  |  | IC50 (PKC epsilon; [1]): 0.5 to 5 µM; IC50 (human ROCKα/ROCKII mix; [1]): 0.05 to 0.5 µM |
| N[C@@H](CC(=O)N[C@H]1CCCc2ccccc21)c1ccc(C(=O)Nc2ccncc2)cc1 [Compound 375, 4{(S)-1-Amino-2-[(S)-(1,2,3,4-tetrahydro-naphthalen-1-yl)carbamoyl]-ethyl}-N-pyridin-4-yl-benzamide dihydrochloric acid salt] | 5 to 50 | 0.05 to 0.5 |  |
| NC(c1ccc(C(=O)Nc2ccncc2)cc1)C1CCCN1C(=O)C1(c2ccc(F)cc2F)CC1 (stereo not drawn) [Compound 582, 4-(Amino-{1-[1-(2,4-difluoro-phenyl)-cyclopropanecarbonyl]-pyrrolidin-2-yl}-methyl)-N-pyridin-4-yl-benzamide] | 0.5 to 5 | 0.5 to 5 |  |
| CN(CC(N)c1ccc(C(=O)Nc2ccncc2)cc1)C(=O)C(C)(C)c1ccc(F)c(F)c1 (stereo not drawn) [Compound 485, 4-(1-Amino-2-{[2-(3,4-difluoro-phenyl)-2-methyl-propionyl]-methyl-amino}-ethyl)-N-pyridin-4-yl-benzamide] | 0.5 to 5 | 0.5 to 5 |  |
| NC(CNC(=O)Nc1ccc(-c2ccccc2)cc1)c1ccc(C(=O)Nc2ccncc2)cc1 (stereo not drawn) [Compound 22, 4-[1-amino-2-(3-biphenyl-4-yl-ureido)-ethyl]-N-pyridin-4-yl-benzamide] | 0.5 to 5 | 0.5 to 5 |  |
| N[C@H](CNC(=O)C1(c2ccc(F)cc2)CCCC1)c1ccc(C(=O)Nc2ccncc2)cc1 [Compound 417, 4-((S)-1-Amino-2-{[1-(4-fluoro-phenyl)-cyclopentanecarbonyl]-amino}-ethyl)-N-pyridin-4-yl-benzamide dihydrochloric acid salt] | < 0.05 | 0.05 to 0.5 |  |
| COc1ccc(C2(C(=O)N3CCCC3C(N)c3ccc(C(=O)Nc4ccncc4)cc3)CC2)cc1 (stereo not drawn) [Compound 529, 4-(Amino-{1-[1-(4-methoxy-phenyl)-cyclopropanecarbonyl]-pyrrolidin-2-yl}-methyl)-N-pyridin-4-yl-benzamide] | 0.5 to 5 | 0.5 to 5 |  |
